# ± gives the expanded uncertainty stated by the source.
# Details: 101.33 kPa, Liquid, Capillary tube (Ostwald / Ubbelohde) method
viscosity (298.15 K) [mPa·s],viscosity (313.15 K) [mPa·s],SMILES
3.08 ± 0.027,1.794 ± 0.016,CCC(C)O (stereo unspecified) [butan-2-ol]
0.2944 ± 0.0034,0.2537 ± 0.0031,CCCCCC [hexane]

SMILES,viscosity (298.15 K) [mPa·s],viscosity (313.15 K) [mPa·s]
CCCCCl [1-chlorobutane],0.4273 ± 0.0045,0.3645 ± 0.004
